Experimental data as given in patent US9353082B2, “Pharmaceutical compounds” (BIAL—PORTELA & CA, S.A., priority 2008, dated 2016).

These molecules were tested against T1, FAAH (Rattus norvegicus, UniProt P97612) (assay: In vitro FAAH activity in rat brain membranes, 3H-AEA substrate, % of control). Details: 100 nM test compound, low value = strong inhibitor.
T1 construct: Frozen brains (without cerebellum) from Wistar rats were used; from tissue; host or cells: Wistar rat brain (without cerebellum), washed membrane pellets
T1 sequence (P97612 1-579): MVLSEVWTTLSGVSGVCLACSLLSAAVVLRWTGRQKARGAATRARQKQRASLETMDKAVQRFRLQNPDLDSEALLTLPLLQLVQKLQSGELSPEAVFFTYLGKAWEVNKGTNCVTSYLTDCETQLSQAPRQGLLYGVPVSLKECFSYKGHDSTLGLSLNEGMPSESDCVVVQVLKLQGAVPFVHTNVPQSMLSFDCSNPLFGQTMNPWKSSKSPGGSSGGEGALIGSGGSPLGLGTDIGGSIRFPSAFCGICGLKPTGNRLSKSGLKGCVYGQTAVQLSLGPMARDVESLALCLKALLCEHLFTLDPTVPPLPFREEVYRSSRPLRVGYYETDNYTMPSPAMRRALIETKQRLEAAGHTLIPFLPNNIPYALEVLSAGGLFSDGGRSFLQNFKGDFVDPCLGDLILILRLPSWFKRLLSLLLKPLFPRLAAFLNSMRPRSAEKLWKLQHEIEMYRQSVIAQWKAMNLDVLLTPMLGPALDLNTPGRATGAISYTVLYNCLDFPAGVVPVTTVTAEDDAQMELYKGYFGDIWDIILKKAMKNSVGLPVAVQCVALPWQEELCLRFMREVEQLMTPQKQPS
Type: biochemical, Wistar rats
Method: 3. Biological Efficacy of Compounds of the Invention The in vitro test was performed according to the protocol described below. The controls for both in vitro and in vivo were the reaction mix minus the test compounds. Therefore, a low value in Table 1 below for the test compounds indicates a strong inhibitor.
The in vitro pharmaceutical FAAH activity was determined according to the following method:
Frozen brains (without cerebellum) from Wistar rats were used, and each brain was homogenized in 15 ml 1 mM MgCL2, […] HEPES pH 7.0 with Potter Elvejhem (8 strokes at 500 rpm). Homogenates were centrifuged for 20 min at 36000 g at 4° C. (Beckman, 70Ti rotor). Pellets were resuspended in 15 ml of the same buffer and centrifuged under the same conditions. Pellets were resuspended in 15 ml of the same buffer and incubated for 15 min at 37° C. after which they were centrifuged for 20 min at 36000 g at 4° C. Each pellet was then resuspended in 15 ml 3 mM MgCl2, 1 mM EDTA, 50 mM Tris pH 7.4 and protein determined with BioRad Protein Assay (BioRad) using a standard curve of BSA (50-250 μg/ml). The membrane suspensions were aliquoted and stored at −80° C.
The FAAH activity was determined using AEA (labelled with 3H in the ethanolamine part of the molecule) as substrate and measuring the 3H-ethanolamine formed. Reaction mix (total volume of 200 up contained: 2 μM AEA (2 μM AEA+5 nM 3H-AEA), 0.1% fatty acid free BSA, 5 μg protein, in 1 mM EDTA, 10 mM Tris pH 7.6 and 10 μM or 0.1 μM compounds. Stock solutions of the compounds to test (10 mM) were prepared in 100% DMSO and the DMSO concentration in the assay was 0.1%. After a 15 min preincubation period at 37° C., reaction was started by the addition of the substrate solution ([…]). Reaction was carried out for 10 min before termination by the addition of 400 μl activated charcoal suspension (8 g charcoal in 32 ml 0.5 M HCl in continuous agitation). After a 30 min incubation period at room temperature with agitation, charcoal was sedimented by centrifugation in microfuge (10 min at 13000 rpm). 200 μl of the supernatant were added to 800 μl Optiphase Supermix scintillation cocktail previously distributed in 24-well plates. Counts per minute (cpm) were determined in Microbeta TriLux scintillation counter (10 min counting or until s=2).
In each assay blanks (no protein, usually below 200 cpm) and controls (no compound) were present. The results are reported in Table 1 as % of control after blank subtraction.

| Structure (SMILES) | In Vitro FAAH activity, 100 nM |
| --- | --- |
| Cc1ccc(OC2CCN(C(=O)n3cnc(-c4ccc(F)cc4F)n3)CC2)cc1 [Compound 134, (3-(2,4-difluorophenyl)-1H-1,2,4-triazol-1-yl)(4-(p-tolyloxy)piperidin-1-yl)methanone] | 34.5 % of control |
| CCN(C(=O)n1nnc2ccccc21)C1CCCCC1 [Compound 104, N-cyclohexyl-N-ethyl-1H-benzo[d][1,2,3]triazole-1-carboxamide] | 94.2 % of control |
| COc1cccc(-c2cn(C(=O)N(C)c3ccccc3)cn2)c1 [Compound 31, 4-(3-methoxyphenyl)-N-methyl-N-phenyl-1H-imidazole-1-carboxamide] | 69 % of control |
| COc1ccc(OC2CCN(C(=O)n3nnc4ccccc43)CC2)cc1 [Compound 137, (1H-benzo[d][1,2,3]triazol-1-yl)(4-(4-methoxyphenoxy)piperidin-1-yl)methanone] | 0.1 % of control |
| O=C(N1CCSC1)n1nnc2ccccc21 [Compound 170, (1H-benzo[d][1,2,3]triazol-1-yl)(thiazolidin-3-yl)methanone] | 2.1 % of control |
| O=C(N1Cc2ccccc2C1)n1nnc2ccccc21 [Compound 174, (1H-benzo[d][1,2,3]triazol-1-yl)(isoindolin-2-yl)methanone] | 0.7 % of control |
| CC(C)(C)N(Cc1ccccc1)C(=O)n1cnc(-c2ccccc2)c1 [Compound 251, N-benzyl-N-tert-butyl-4-phenyl-1H-imidazole-1-carboxamide] | 91.7 % of control |
| CC1(C)COCN1C(=O)n1c(Cl)nc(-c2ccc(Cl)cc2)c1Cl [Compound 269, (2,5-dichloro-4-(4-chlorophenyl)-1H-imidazol-1-yl)(4,4-dimethyloxazolidin-3-yl)methanone] | 106.2 % of control |
| COc1cccc(-c2cn(C(=O)N(Cc3ccccc3)C(C)(C)C)cn2)c1 [Compound 256, N-benzyl-N-tert-butyl-4-(3-methoxyphenyl)-1H-imidazole-1-carboxamide] | 105.6 % of control |
| COc1ccc(-c2cn(C(=O)N(C)c3ccccc3)cn2)cc1 [Compound 28, 4-(4-methoxyphenyl)-N-methyl-N-phenyl-1H-imidazole-1-carboxamide] | 85.1 % of control |
| CC1(C)COCN1C(=O)n1cnc(-c2ccccc2)c1 [Compound 161, (4,4-dimethyloxazolidin-3-yl)(4-phenyl-1H-imidazol-1-yl)methanone] | 93.6 % of control |
| CON(C)C(=O)n1nnc2ccccc21 [Compound 169, N-methoxy-N-methyl-1H-benzo[d][1,2,3]triazole-1-carboxamide] | 73.6 % of control |
| CN(C(=O)n1nnc2cc(-c3cccc(C(N)=O)c3)ccc21)C1CCCCC1 [Compound 108, 5-(3-carbamoylphenyl)-N-cyclohexyl-N-methyl-1H-benzo[d][1,2,3]triazole-1-carboxamide] | 7.4 % of control |
| O=C(N1CCOC1c1ccccc1)n1cnc(-c2ccc(Cl)cc2)c1 (centres unmarked) [Compound 241, (4-(4-chlorophenyl)-1H-imidazol-1-yl)(2-phenyloxazolidin-3-yl)methanone] | 76.5 % of control |
| O=C(Nc1ccc(F)cc1F)n1nnc2ccccc21 [Compound 59, N-(2,4-difluorophenyl)-1H-benzo[d][1,2,3]triazole-1-carboxamide] | 100.4 % of control |
| CC1CC(C)CN(C(=O)n2nnc3ccccc32)C1 (centres unmarked) [Compound 175, (1H-benzo[d][1,2,3]triazol-1-yl)(3,5-dimethylpiperidin-1-yl)methanone] | 21 % of control |
| COc1cccc(-c2cn(C(=O)N(Cc3ccccc3)C(C)C)cn2)c1 [Compound 255, N-benzyl-N-isopropyl-4-(3-methoxyphenyl)-1H-imidazole-1-carboxamide] | 96.7 % of control |
| O=C(N1CCN(C2CCCCC2)CC1)n1cnc(-c2ccc(F)c(F)c2)c1 [Compound 201, (4-cyclohexylpiperazin-1-yl)(4-(3,4-difluorophenyl)-1H-imidazol-1-yl)methanone] | 0.3 % of control |
| C[C@@H]1CCC[C@H](C)N1C(=O)n1nnc2ccccc21 [Compound 173, (1H-benzo[d][1,2,3]triazol-1-yl)((2R,6S)-2,6-dimethylpiperidin-1-yl)methanone] | 70.6 % of control |
| CN(C)C(=O)n1cnc(-c2ccc(N3CCN(c4ccccc4)CC3)cc2)n1 [Compound 138, N,N-dimethyl-3-(4-(4-phenylpiperazin-1-yl)phenyl)-1H-1,2,4-triazole-1-carboxamide] | 83.8 % of control |
| COc1cccc(OC2CCN(C(=O)n3nnc4ccccc43)CC2)c1 [Compound 166, (1H-benzo[d][1,2,3]triazol-1-yl)(4-(3-methoxyphenoxy)piperidin-1-yl)methanone] | 0 % of control |
| CN(C(=O)n1cnc(-c2ccc(O)cc2)c1)c1ccc(F)cc1 [Compound 54, N-(4-fluorophenyl)-4-(4-hydroxyphenyl)-N-methyl-1H-imidazole-1-carboxamide] | 91 % of control |
| CN(CCc1ccccc1)C(=O)n1nnc2ccccc21 [Compound 115, N-methyl-N-phenethyl-1H-benzo[d][1,2,3]triazole-1-carboxamide] | 0 % of control |
| CCCCOc1ccc(OC2CCN(C(=O)n3nnc4ccccc43)CC2)cc1 [Compound 168, (1H-benzo[d][1,2,3]triazol-1-yl)(4-(4-butoxyphenoxy)piperidin-1-yl)methanone] | 0 % of control |
| CN(C(=O)n1cnc(-c2ccc(Cl)cc2)n1)c1ccccc1 [Compound 67, 3-(4-chlorophenyl)-N-methyl-N-phenyl-1H-1,2,4-triazole-1-carboxamide] | 61 % of control |

Same assay, conditions: 10 uM test compound, low value = strong inhibitor

| Structure (SMILES) | In Vitro FAAH activity, 10 uM |
| --- | --- |
| COc1cccc(-c2cn(C(=O)N(C)c3ccccc3)cn2)c1 [Compound 31, 4-(3-methoxyphenyl)-N-methyl-N-phenyl-1H-imidazole-1-carboxamide] | 0 % of control |
| O=C(Nc1ccccc1)n1ccc(-c2ccccc2)n1 [Compound 5, N,3-diphenyl-1H-pyrazole-1-carboxamide] | 91.3 % of control |
| COc1ccc(-c2cn(C(=O)N(C)c3ccccc3)cn2)cc1 [Compound 28, 4-(4-methoxyphenyl)-N-methyl-N-phenyl-1H-imidazole-1-carboxamide] | 0.7 % of control |
| CC1(C)COCN1C(=O)n1cnc(-c2ccccc2)c1 [Compound 161, (4,4-dimethyloxazolidin-3-yl)(4-phenyl-1H-imidazol-1-yl)methanone] | 3.3 % of control |
| COc1cccc(NC(=O)n2ccc(-c3ccc(-c4ccccc4)cc3)n2)c1 [Compound 22, 3-(biphenyl-4-yl)-N-(3-methoxyphenyl)-1H-pyrazole-1-carboxamide] | 95.8 % of control |
| O=C(N1CCOCC1)n1ccnc1 [Compound 1, (1H-imidazol-1-yl)(morpholino)methanone] | 62.6 % of control |

Same assay, conditions: rat brain membranes, compound at 100 nM, low value = strong inhibitor

| Structure (SMILES) | In Vitro 100 nM (FAAH activity, % of control) |
| --- | --- |
| CN(C(=O)n1cnc(-c2ccc(Cl)c(Cl)c2)c1)C1CCCCC1 [Compound 274, N-cyclohexyl-4-(3,4-dichlorophenyl)-N-methyl-1H-imidazole-1-carboxamide] | 85 % of control |
